Results as given in patent publication US9340590B2 (priority 2011, dated 2016).
pIC50: −log10 of the molar value. Where two headings read alike, the source gives them in different places. Positions of bridges follow the written chain, without caps; N, C: chain ends. Non-standard residues stand in square brackets, D forms with d. Residues, ends and D or L forms follow the SMILES beside them. 2Pal = N[C@@H](Cc1ccccn1)C(=O)O; NMeL = CN[C@@H](CC(C)C)C(=O)O; Phg = N[C@H](C(=O)O)c1ccccc1; Tle = CC(C)(C)[C@H](N)C(=O)O

Legend:
Assay in all cases: cell-based
[1] = biological target: hNav1.7 (Homo sapiens, UniProt Q15858); type: cell-based; conditions: IonWorks Quattro, read-out: IWQ Use Nav1.7
[2] = biological target: hNav1.5 (Homo sapiens, UniProt Q14524); conditions: IonWorks Quattro, read-out: IWQ Use Nav1.5
[3] = biological target: hNav1.3 (Homo sapiens, UniProt Q9NY46); conditions: IonWorks Quattro, read-out: IWQ Use Nav1.3
Sequence of hNav1.3 (Q9NY46 whole entry, looked up): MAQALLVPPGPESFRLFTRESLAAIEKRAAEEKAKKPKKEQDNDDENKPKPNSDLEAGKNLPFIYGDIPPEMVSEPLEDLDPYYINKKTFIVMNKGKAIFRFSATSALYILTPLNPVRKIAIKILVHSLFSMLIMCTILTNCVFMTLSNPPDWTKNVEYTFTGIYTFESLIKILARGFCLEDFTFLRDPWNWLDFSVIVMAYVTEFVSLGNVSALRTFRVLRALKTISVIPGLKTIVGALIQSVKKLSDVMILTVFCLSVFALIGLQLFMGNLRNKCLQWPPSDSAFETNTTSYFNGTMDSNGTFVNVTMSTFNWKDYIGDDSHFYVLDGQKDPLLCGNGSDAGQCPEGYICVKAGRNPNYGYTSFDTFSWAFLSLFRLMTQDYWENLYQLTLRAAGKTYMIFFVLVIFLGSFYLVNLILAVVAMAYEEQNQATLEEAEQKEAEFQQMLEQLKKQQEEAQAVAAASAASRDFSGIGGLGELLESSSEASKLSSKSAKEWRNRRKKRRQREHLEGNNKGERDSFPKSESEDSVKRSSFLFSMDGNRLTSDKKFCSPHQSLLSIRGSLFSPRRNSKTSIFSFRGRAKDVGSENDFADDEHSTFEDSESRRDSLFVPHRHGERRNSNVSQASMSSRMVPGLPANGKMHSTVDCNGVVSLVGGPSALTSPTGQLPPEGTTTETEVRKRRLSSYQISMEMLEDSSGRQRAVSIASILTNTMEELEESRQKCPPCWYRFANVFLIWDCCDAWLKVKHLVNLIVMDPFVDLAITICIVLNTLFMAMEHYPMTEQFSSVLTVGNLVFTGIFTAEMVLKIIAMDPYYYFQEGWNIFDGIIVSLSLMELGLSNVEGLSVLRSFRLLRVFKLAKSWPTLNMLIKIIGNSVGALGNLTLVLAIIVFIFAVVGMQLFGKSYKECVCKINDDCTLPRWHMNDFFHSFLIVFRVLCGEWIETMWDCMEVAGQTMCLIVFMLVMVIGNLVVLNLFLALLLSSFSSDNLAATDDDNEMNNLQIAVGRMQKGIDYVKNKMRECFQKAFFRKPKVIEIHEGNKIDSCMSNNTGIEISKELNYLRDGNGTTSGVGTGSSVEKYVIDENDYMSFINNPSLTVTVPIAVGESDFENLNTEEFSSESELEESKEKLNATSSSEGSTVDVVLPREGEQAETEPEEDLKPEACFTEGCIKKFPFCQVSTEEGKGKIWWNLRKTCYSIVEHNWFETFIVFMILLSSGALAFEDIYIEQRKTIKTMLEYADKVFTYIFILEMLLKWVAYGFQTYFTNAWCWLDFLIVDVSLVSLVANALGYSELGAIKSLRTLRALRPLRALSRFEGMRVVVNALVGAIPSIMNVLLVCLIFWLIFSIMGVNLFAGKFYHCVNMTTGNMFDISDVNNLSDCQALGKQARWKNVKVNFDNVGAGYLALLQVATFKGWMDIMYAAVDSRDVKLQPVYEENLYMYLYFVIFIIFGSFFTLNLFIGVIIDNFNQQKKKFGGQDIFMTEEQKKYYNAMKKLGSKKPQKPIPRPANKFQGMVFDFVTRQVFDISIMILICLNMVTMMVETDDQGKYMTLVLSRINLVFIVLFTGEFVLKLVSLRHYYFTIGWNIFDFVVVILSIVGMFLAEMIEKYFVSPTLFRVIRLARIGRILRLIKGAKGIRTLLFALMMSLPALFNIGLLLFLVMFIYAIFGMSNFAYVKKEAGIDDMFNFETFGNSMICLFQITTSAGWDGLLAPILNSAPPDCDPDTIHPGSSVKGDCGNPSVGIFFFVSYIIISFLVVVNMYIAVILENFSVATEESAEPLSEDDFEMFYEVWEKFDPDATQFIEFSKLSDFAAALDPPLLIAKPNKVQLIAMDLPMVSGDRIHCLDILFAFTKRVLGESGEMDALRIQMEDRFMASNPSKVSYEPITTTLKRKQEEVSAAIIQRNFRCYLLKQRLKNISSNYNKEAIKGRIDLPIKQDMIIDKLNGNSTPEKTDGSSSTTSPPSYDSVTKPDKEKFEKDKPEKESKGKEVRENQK

Sequence of hNav1.5 (Q14524 whole entry, looked up): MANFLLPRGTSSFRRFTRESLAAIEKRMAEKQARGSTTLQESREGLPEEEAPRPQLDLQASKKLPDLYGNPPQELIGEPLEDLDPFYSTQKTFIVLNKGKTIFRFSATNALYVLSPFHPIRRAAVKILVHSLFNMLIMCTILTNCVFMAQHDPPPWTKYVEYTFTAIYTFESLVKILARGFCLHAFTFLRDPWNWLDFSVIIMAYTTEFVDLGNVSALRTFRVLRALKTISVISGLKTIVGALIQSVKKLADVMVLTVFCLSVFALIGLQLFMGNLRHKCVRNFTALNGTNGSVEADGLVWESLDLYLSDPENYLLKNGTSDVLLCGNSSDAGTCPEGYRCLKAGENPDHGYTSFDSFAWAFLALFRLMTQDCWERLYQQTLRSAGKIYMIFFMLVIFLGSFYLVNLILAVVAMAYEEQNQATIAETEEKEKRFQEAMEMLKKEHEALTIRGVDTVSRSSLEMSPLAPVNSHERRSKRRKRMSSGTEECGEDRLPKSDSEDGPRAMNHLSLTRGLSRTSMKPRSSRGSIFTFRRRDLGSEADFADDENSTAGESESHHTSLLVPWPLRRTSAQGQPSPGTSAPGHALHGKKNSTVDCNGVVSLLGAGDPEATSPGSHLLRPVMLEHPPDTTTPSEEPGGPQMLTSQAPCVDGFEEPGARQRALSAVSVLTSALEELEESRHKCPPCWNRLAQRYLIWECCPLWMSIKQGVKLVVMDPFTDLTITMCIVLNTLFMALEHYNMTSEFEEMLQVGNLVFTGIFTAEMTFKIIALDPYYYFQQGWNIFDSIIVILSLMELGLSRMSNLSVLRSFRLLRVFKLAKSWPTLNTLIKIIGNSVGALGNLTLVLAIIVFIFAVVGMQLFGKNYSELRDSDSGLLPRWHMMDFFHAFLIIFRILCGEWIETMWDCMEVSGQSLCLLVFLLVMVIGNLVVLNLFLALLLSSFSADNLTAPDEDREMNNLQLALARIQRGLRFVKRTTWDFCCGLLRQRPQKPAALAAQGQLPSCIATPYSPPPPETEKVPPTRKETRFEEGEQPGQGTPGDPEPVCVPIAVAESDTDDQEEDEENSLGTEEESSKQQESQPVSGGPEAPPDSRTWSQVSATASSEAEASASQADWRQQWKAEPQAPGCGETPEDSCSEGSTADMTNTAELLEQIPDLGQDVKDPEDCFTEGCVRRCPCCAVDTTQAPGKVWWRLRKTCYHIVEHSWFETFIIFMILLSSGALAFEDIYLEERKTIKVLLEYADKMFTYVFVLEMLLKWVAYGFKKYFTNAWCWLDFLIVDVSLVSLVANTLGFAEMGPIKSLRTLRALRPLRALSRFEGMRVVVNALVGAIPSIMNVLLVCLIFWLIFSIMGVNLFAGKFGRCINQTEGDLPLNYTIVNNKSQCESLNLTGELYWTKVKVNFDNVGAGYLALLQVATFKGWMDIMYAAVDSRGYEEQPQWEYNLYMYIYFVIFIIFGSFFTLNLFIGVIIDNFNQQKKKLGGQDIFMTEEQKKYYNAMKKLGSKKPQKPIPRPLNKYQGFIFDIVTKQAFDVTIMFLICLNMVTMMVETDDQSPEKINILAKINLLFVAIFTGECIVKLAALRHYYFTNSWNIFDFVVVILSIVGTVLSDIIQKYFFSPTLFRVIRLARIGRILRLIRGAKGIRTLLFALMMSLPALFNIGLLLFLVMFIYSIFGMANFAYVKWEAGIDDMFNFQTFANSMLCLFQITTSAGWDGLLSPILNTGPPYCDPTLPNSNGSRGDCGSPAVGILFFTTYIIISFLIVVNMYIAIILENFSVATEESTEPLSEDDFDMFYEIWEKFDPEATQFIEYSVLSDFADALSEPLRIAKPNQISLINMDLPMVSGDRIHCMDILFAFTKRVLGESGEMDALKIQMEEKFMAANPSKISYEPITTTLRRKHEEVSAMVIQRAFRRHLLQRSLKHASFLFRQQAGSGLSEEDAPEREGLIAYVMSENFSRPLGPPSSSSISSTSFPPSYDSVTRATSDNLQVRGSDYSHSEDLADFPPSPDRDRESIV

Compound | pIC50 ([1]; use-dependent block, hNav1.7) | pIC50 ([2]; use-dependent block, hNav1.5) | pIC50 ([3]; use-dependent block, hNav1.3) | also measured
CC[C@H](C)[C@@H]1NC(=O)[C@@H]2CSSC[C@@H]3NC(=O)[C@H](C(C)C)NC(=O)[C@H](CC(C)C)NC(=O)[C@H](CC(N)=O)NC(=O)[C@@H]4CCCN4C(=O)[C@H](CCCNC(=N)N)NC(=O)[C@H](CSSC[C@H](NC(=O)[C@@H](N)CC(=O)O)C(=O)N[C@@H](CC(C)C)C(=O)NCC(=O)N[C@@H](C)C(=O)N[C@@H](CC(C)C)C(=O)N[C@@H](CCCNC(=N)N)C(=O)N[C@@H](CCCCN)C(=O)N2)NC(=O)[C@H](CSSC[C@@H](C(=O)N[C@@H](CCCCN)C(=O)N[C@@H](Cc2ccc(O)cc2)C(=O)N[C@H](C(=O)N[C@@H](Cc2ccccc2)C(=O)O)C(C)C)NC(=O)[C@H](Cc2c[nH]c4ccccc24)NC(=O)[C@H](Cc2c[nH]cn2)NC(=O)[C@H](Cc2c[nH]cn2)NC(=O)[C@H]([C@@H](C)O)NC(=O)[C@H](CCCNC(=N)N)NC(=O)[C@H](CO)NC3=O)NC(=O)[C@H](CCCCN)NC(=O)[C@H](CC(=O)O)NC(=O)[C@H](CC(N)=O)NC(=O)[C@H](CC(=O)O)NC(=O)[C@@H]2CCCN2C1=O [compound 599] (H-DCLGALRKCIPDNDKCCRPNLVCSRTHHWCKYVF-OH; disulfide 2-17, 9-23, 16-30) | < 5.30 | 4.90 | 5.66 | –
CC[C@H](C)[C@@H]1NC(=O)[C@@H]2CSSC[C@@H]3NC(=O)[C@H](C(C)C)NC(=O)[C@H](CC(C)C)NC(=O)[C@H](CC(N)=O)NC(=O)[C@@H]4CCCN4C(=O)[C@H](CCCNC(=N)N)NC(=O)[C@H](CSSC[C@H](NC(=O)[C@@H](N)CC(=O)O)C(=O)N[C@@H](CC(C)C)C(=O)NCC(=O)N(C)[C@@H](CC(C)C)C(=O)N[C@@H](Cc4ccccc4)C(=O)N[C@@H](CCCNC(=N)N)C(=O)N[C@@H](CCCCN)C(=O)N2)NC(=O)[C@H](CSSC[C@@H](C(=O)N[C@@H](CCCCN)C(=O)N[C@@H](Cc2ccc(O)cc2)C(=O)N[C@H](C(=O)N[C@@H](Cc2ccccc2)C(N)=O)C(C)C)NC(=O)[C@H](Cc2c[nH]c4ccccc24)NC(=O)[C@H](CCCCN)NC(=O)[C@H](Cc2c[nH]cn2)NC(=O)[C@H]([C@@H](C)O)NC(=O)[C@H](CCCNC(=N)N)NC(=O)[C@H](CO)NC3=O)NC(=O)[C@H](CCCCN)NC(=O)[C@H](CC(=O)O)NC(=O)[C@H](CC(N)=O)NC(=O)[C@H](CC(=O)O)NC(=O)[C@@H]2CCCN2C1=O [compound 628] (H-DCLG[NMeL]FRKCIPDNDKCCRPNLVCSRTHKWCKYVF-NH2; disulfide 2-17, 9-23, 16-30) | – | – | – | pIC50 ([1]; use-dependent protocol, hNav1.7): 7.12; pIC50 ([2]; use-dependent protocol, hNav1.5): 5.08; pIC50 ([3]; use-dependent protocol, hNav1.3): 7.04
CC[C@H](C)[C@@H]1NC(=O)[C@@H]2CSSC[C@@H]3NC(=O)[C@H](C(C)C)NC(=O)[C@H](CC(C)C)NC(=O)[C@H](CC(N)=O)NC(=O)[C@@H]4CCCN4C(=O)[C@H](Cc4ccccn4)NC(=O)[C@H](CSSC[C@H](NC(=O)[C@@H](N)CC(=O)O)C(=O)N[C@@H](CC(C)C)C(=O)NCC(=O)N[C@@H](Cc4ccccc4)C(=O)N[C@@H](CCSC)C(=O)N[C@@H](CCCNC(=N)N)C(=O)N[C@@H](CCCCN)C(=O)N2)NC(=O)[C@H](CSSC[C@@H](C(=O)N[C@@H](CCCCN)C(=O)N[C@@H](Cc2ccc(O)cc2)C(=O)N[C@H](C(=O)N[C@@H](Cc2ccccc2)C(N)=O)C(C)C)NC(=O)[C@H](Cc2c[nH]c4ccccc24)NC(=O)[C@H](CCCCN)NC(=O)[C@H](Cc2cnc[nH]2)NC(=O)[C@H]([C@@H](C)O)NC(=O)[C@H](CCCNC(=N)N)NC(=O)[C@H](CO)NC3=O)NC(=O)[C@H](CCCCN)NC(=O)[C@H](CC(=O)O)NC(=O)[C@H](CC(N)=O)NC(=O)[C@H](CC(=O)O)NC(=O)[C@@H]2CCCN2C1=O [compound 316] (H-DCLGFMRKCIPDNDKCC[2Pal]PNLVCSRTHKWCKYVF-NH2; disulfide 2-17, 9-23, 16-30) | – | – | – | pIC50 ([1]; Use): 6.72; pIC50 ([2]; Use): 5.04; pIC50 ([3]; Use): 7.22
CC[C@H](C)[C@@H]1NC(=O)[C@@H]2CSSC[C@@H]3NC(=O)[C@H](C(C)C)NC(=O)[C@H](CC(C)C)NC(=O)[C@H](CC(N)=O)NC(=O)[C@@H]4CCCN4C(=O)[C@H](CCCNC(=N)N)NC(=O)[C@H](CSSC[C@H](NC(=O)[C@@H](N)CC(=O)O)C(=O)N[C@@H](CC(C)C)C(=O)NCC(=O)N[C@@H](Cc4ccccc4)C(=O)N[C@@H](CCSC)C(=O)N[C@@H](CCCNC(=N)N)C(=O)N[C@@H](CCCCN)C(=O)N2)NC(=O)[C@H](CSSC[C@@H](C(=O)N[C@@H](CCCCN)C(=O)N[C@H](C(=O)N[C@H](C(=O)N[C@@H](Cc2ccccc2)C(N)=O)C(C)C)c2ccccc2)NC(=O)[C@H](Cc2c[nH]c4ccccc24)NC(=O)[C@H](CCCCN)NC(=O)[C@H](Cc2c[nH]cn2)NC(=O)[C@H]([C@@H](C)O)NC(=O)[C@H](CCCNC(=N)N)NC(=O)[C@H](CO)NC3=O)NC(=O)[C@H](CCCCN)NC(=O)[C@H](CC(=O)O)NC(=O)[C@H](CC(N)=O)NC(=O)[C@H](CC(=O)O)NC(=O)[C@@H]2CCCN2C1=O [compound 374] (H-DCLGFMRKCIPDNDKCCRPNLVCSRTHKWCK[Phg]VF-NH2; disulfide 2-17, 9-23, 16-30) | – | – | – | pIC50 ([1]; Table 25, use, […]): 6.85; pIC50 ([2]; Table 25, use, […]): 5.15; pIC50 ([3]; Table 25, use, […]): 7.00
CC[C@H](C)[C@@H]1NC(=O)[C@@H]2CSSC[C@@H]3NC(=O)[C@H](C(C)C)NC(=O)[C@H](CC(C)C)NC(=O)[C@H](CC(N)=O)NC(=O)[C@@H]4CCCN4C(=O)[C@H](CCCNC(=N)N)NC(=O)[C@H](CSSC[C@H](NC(=O)[C@@H](N)CC(=O)O)C(=O)N[C@@H](CC(C)C)C(=O)NCC(=O)N[C@@H](C(C)(C)C)C(=O)N[C@@H](Cc4ccccc4)C(=O)N[C@@H](CCCNC(=N)N)C(=O)N[C@@H](CCCCN)C(=O)N2)NC(=O)[C@H](CSSC[C@@H](C(=O)N[C@@H](CCCCN)C(=O)N[C@@H](Cc2ccc(O)cc2)C(=O)N[C@H](C(=O)N[C@@H](Cc2ccccc2)C(N)=O)C(C)C)NC(=O)[C@H](Cc2c[nH]c4ccccc24)NC(=O)[C@H](CCCCN)NC(=O)[C@H](Cc2c[nH]cn2)NC(=O)[C@H]([C@@H](C)O)NC(=O)[C@H](CCCNC(=N)N)NC(=O)[C@H](CO)NC3=O)NC(=O)[C@H](CCCCN)NC(=O)[C@H](CC(=O)O)NC(=O)[C@H](CC(N)=O)NC(=O)[C@H](CC(=O)O)NC(=O)[C@@H]2CCCN2C1=O [compound 609] (H-DCLG[Tle]FRKCIPDNDKCCRPNLVCSRTHKWCKYVF-NH2; disulfide 2-17, 9-23, 16-30) | 7.09 | 5.17 | 6.59 | –
CC[C@H](C)[C@@H]1NC(=O)[C@@H]2CSSC[C@@H]3NC(=O)[C@H](C(C)C)NC(=O)[C@H](CC(C)C)NC(=O)[C@H](CC(N)=O)NC(=O)[C@@H]4CCCN4C(=O)[C@H](CCCNC(=N)N)NC(=O)[C@H](CSSC[C@H](NC(=O)[C@@H](N)CC(=O)O)C(=O)N[C@@H](CC(C)C)C(=O)NCC(=O)N[C@@H](C)C(=O)N[C@@H](CCSC)C(=O)N[C@@H](CCCNC(=N)N)C(=O)N[C@@H](CCCCN)C(=O)N2)NC(=O)[C@H](CSSC[C@@H](C(=O)N[C@@H](CCCCN)C(=O)N[C@@H](Cc2ccc(O)cc2)C(=O)N[C@H](C(=O)N[C@@H](Cc2ccccc2)C(N)=O)C(C)C)NC(=O)[C@H](CCC(=O)O)NC(=O)[C@H](CCCCN)NC(=O)[C@H](Cc2c[nH]cn2)NC(=O)[C@H]([C@@H](C)O)NC(=O)[C@H](CCCNC(=N)N)NC(=O)[C@H](CO)NC3=O)NC(=O)[C@H](CCCCN)NC(=O)[C@H](CC(=O)O)NC(=O)[C@H](CC(N)=O)NC(=O)[C@H](CC(=O)O)NC(=O)[C@@H]2CCCN2C1=O [compound 437] (H-DCLGAMRKCIPDNDKCCRPNLVCSRTHKECKYVF-NH2; disulfide 2-17, 9-23, 16-30) | 4.92 | 5.03 | 5.22 | –
CC[C@H](C)[C@@H]1NC(=O)[C@@H]2CSSC[C@@H]3NC(=O)[C@H](C(C)C)NC(=O)[C@H](CC(C)C)NC(=O)[C@H](CC(N)=O)NC(=O)[C@@H]4CCCN4C(=O)[C@H](CCCNC(=N)N)NC(=O)[C@H](CSSC[C@H](NC(=O)[C@@H](N)CC(=O)O)C(=O)N[C@@H](CC(C)C)C(=O)NCC(=O)N[C@@H](Cc4ccccc4)C(=O)N[C@@H](CCSC)C(=O)N[C@@H](CCCNC(N)=O)C(=O)N[C@@H](CCCCN)C(=O)N2)NC(=O)[C@H](CSSC[C@@H](C(=O)N[C@@H](CCCCN)C(=O)N[C@@H](Cc2ccc(O)cc2)C(=O)N[C@H](C(=O)N[C@@H](Cc2ccccc2)C(N)=O)C(C)C)NC(=O)[C@H](Cc2c[nH]c4ccccc24)NC(=O)[C@H](CCCCN)NC(=O)[C@H](Cc2c[nH]cn2)NC(=O)[C@H]([C@@H](C)O)NC(=O)[C@H](CCCNC(=N)N)NC(=O)[C@H](CO)NC3=O)NC(=O)[C@H](CCCCN)NC(=O)[C@H](CC(=O)O)NC(=O)[C@H](CC(N)=O)NC(=O)[C@H](CC(=O)O)NC(=O)[C@@H]2CCCN2C1=O [[Cit7]GpTx-1(1-34)] | 6.20 | 4.84 | 6.25 | –
